Measured values published in paper PMC10945559, “Forgotten Natural Products: Semisynthetic Development of Blasticidin S As an Antibiotic Lead” (ACS Medicinal Chemistry Letters, 2024).
In brackets after ≈: the same amount, converted by molar mass. Like-named read-outs stand apart in the source and are kept apart here.

Columns and labels:
S. aureus 8810 = assay: Broth microdilution antibacterial assay; type: cell-based, Staphylococcus aureus; conditions: for Selectivity index (CC50/IC50): MRC-5 CC50 / S. aureus IC50; for IC50 / MIC: Staphylococcus aureus, 8810; for IC50: average of two biological replicates ± S.D., read-out: IC50
Method: (§1) Antibacterial Assay Procedure
(§2) Broth Microdilution Assays
(§3) Media and solutions were autoclaved or sterile filtered prior to use and manipulations were carried out in a laminar flow hood. Antibacterial testing was performed in polypropylene 96 -well flat bottom plates. The minimal inhibitory concentration of blasticidin S ( 1) hydrochloride, P10 (2), and derivatives 15–22 were assessed against Staphylococcus aureus ΔNorA, S. aureus 8810, methicillin-resistant S. aureus (MRSA) ATCC 43300, Enterococcus faecalis ATCC 29212, vancomycin-resistant Enterococcus, Klebsiella pneumoniae ATCC 29665, Pseudomonas aeruginosa, and Acinetobacter baumannii ATCC 17978 using serial dilutions. Doxycycline (Gold Bio) as a positive control and the vehicle as a negative control. Stock solutions of each compound were prepared at 5.12 mg/mL in 50% DMSO/water and serially diluted in 50% DMSO/water to create master plates. From the master plates, 10 μL of each dilution was applied to test plates using a Bravo automated liquid transfer system (Agilent). Bacteria previously grown overnight (37 °C, 120 – 200 RPM), in LB broth were diluted to an OD600 of 0.0 5 in cation-adjusted Mueller-Hinton broth, grown to an OD600 of ~0.5, and diluted to an OD600 of 0.004 in cation-adjusted Mueller-Hinton broth. These diluted cultures were applied to the test plates (190 μL per test well) resulting in final concentrations of the test compounds of 256–2 μg/mL. Growth controls (wells with inoculated media but no vehicle or test compounds) were included to assess any potential toxicity from the vehicle. The plates were incubated at 37 °C for 16–18 h, except for VRE and E. faecalis, which were incubated at 37 °C for 24 h. Inhibition was determined by measuring the optical density at 600 nm (OD600) with a Cytation 3 plate reader (BioTek). The optical density measurements were normalized to the positive and negative controls and the vehicle and growth controls were compared and found to be indistinguishable, indicating no toxicity from the vehicle used. The MIC was the lowest concentration that inhibited >90% of growth. Two biological replicates were performed in duplicate. MIC values are reported […]
(§4) as a range from biological replicates. Inhibition curves were generated using Prism (GraphPad).
(§5) The IC50 values reported in Table 2 are the average of the two biological replicates ± standard […]
(§6) Cytotoxicity Assay Procedure
(§7) Human lung fibroblast cells, MRC -5 (CCL-171), were cultured at 37℃ with 5% CO2 and were plated at 5000 cells/well in a 96 -well plate. Compounds 1, 2, and 15-22 were initially prepared at concentrations of 5.12 mg/mL in a vehicle of 50% DMSO. Dilutions of the compounds (4 – 512 μg/mL) were then prepared in growth medium containing Dulbecco’s modified Eagle’s medium (DMEM) with high glucose, L -glutamine, and sodium pyruvate supplemented with 10% fetal bovine serum (FBS), 1% non -essential amino acids, and 0.1% gentamicin sulfate, and 25mM HEPES. The vehicle (50% DMSO) was also prepared via the sa me dilution series to serve as a control. Growth media was removed from the cells and replaced with the same volume of each compound dilution. Cells were incubated for 24 h , after which CellTiter 96® AQueous One Solution Reagent was added to each well as recommended by the manufacturer’s protocol (Promega CellTiter 96 AQueous One Solution Cell Proliferation Assay) and further incubated for 4 h. After incubation, absorbance was measured at 490 nm on an Infinite M plex multimode microplate reader with i -control Tecan software. Viability was calculated by subtracting media only absorbance values and normalizing to the vehicle control at each concentration. The presented data is one assay performed in triplicate that is representative of multiple trials. Data for the 256 and 512 μg/mL concentrations were removed from analysis due to vehicle toxicity […]
(§8) CC50 concentrations were determined via the ED50 Plus v1.0 software (https://archive.org/details/ed50v10_zip).

[1] = test system: methicillin-resistant S. aureus (MRSA) ATCC 43300; assay: Broth microdilution antibacterial assay; type: cell-based, Staphylococcus aureus; conditions: for Selectivity index (CC50/IC50): MRC-5 CC50 / MRSA IC50; for IC50 / MIC: Staphylococcus aureus; for IC50: average of two biological replicates ± S.D., read-out: IC50
Method: as §1, §2, §3, §4, §5, §6, §7, §8

[2] = test system: vancomycin-resistant Enterococcus (VRE); assay: Broth microdilution antibacterial assay; type: cell-based; conditions: for MIC / IC50: Enterococcus, VRE; for IC50: average of two biological replicates ± S.D., read-out: IC50; for Selectivity index (CC50/IC50): MRC-5 CC50 / VRE IC50
Method: as §1, §2, §3, §4, §5, §6, §7, §8

[3] = test system: Staphylococcus aureus ΔNorA; assay: Broth microdilution antibacterial assay; type: cell-based; conditions: for Selectivity index (CC50/IC50): MRC-5 CC50 / S. aureus ΔNorA IC50; for IC50 / MIC: Staphylococcus aureus
Method: as §1, §2, §3, §4, §5, §6, §7, §8

Pseudomonas aeruginosa = assay: Broth microdilution antibacterial assay; type: cell-based; conditions: for Selectivity index (CC50/IC50): MRC-5 CC50 / P. aeruginosa IC50; for MIC / IC50: Pseudomonas aeruginosa; for IC50: P. aeruginosa, average of two biological replicates ± S.D., read-out: IC50
Method: as §1, §2, §3, §4, §5, §6, §7, §8

[4] = test system: Enterococcus faecalis ATCC 29212; assay: Broth microdilution antibacterial assay; type: cell-based; conditions: for MIC / IC50: Enterococcus faecalis, ATCC29212; for IC50: average of two biological replicates ± S.D. (18: one biological replicate), read-out: IC50; for Selectivity index (CC50/IC50): MRC-5 CC50 / E. faecalis IC50
Method: as §1, §2, §3, §4, §5, §6, §7, §8

[5] = test system: Acinetobacter baumannii ATCC 17978; assay: Broth microdilution antibacterial assay; type: cell-based; conditions: for IC50 / MIC: Acinetobacter baumannii, ATCC17978; for IC50: average of two biological replicates ± S.D., read-out: IC50; for Selectivity index (CC50/IC50): MRC-5 CC50 / A. baumannii IC50
Method: as §1, §2, §3, §4, §5, §6, §7, §8

[6] = test system: Klebsiella pneumoniae ATCC 29665; assay: Broth microdilution antibacterial assay; type: cell-based; conditions: for IC50 / MIC: Klebsiella pneumoniae, ATCC29665, K. pneumoniae; for IC50: average of two biological replicates ± S.D., read-out: IC50; for MIC: lowest concentration inhibiting >90% of growth, range from biological replicates, read-out: MIC; for Selectivity index (CC50/IC50): MRC-5 CC50 / K. pneumoniae IC50
Method: as §1, §2, §3, §4, §5, §6, §7, §8

in vitro = type: cell-based, human; conditions: human; MRC-5 (lung fibroblast); 24 h; one biological replicate (n = 3); read-out: CC50 for human cells
Method: as §4, §5, §6, §7, §8
Figure S41. The effect of compounds on cell viability. The lines represent non -linear regression curves, and error bars represent means ± […]
SD (n=3). […]

[7] = S. aureus, lowest concentration inhibiting >90% of growth, range from biological replicates, read-out: MIC
[8] = average MIC, Table S3, read-out: Average Activity against S. aureus
[9] = MRSA, lowest concentration inhibiting >90% of growth, range from biological replicates, read-out: MIC
[10] = average MIC, Table S3, read-out: Average Activity against MRSA
[11] = average MIC, Table S3, read-out: Average Activity against VRE
[12] = 24 h, lowest concentration inhibiting >90% of growth, range from biological replicates, read-out: MIC
[13] = E. faecalis, 24 h, lowest concentration inhibiting >90% of growth, range from biological replicates, read-out: MIC
[14] = average MIC, Table S3, read-out: Average Activity against E. faecalis

Compound	Selectivity index (CC50/IC50) (S. aureus 8810)	IC50 (S. aureus 8810; S. aureus)	MIC (S. aureus 8810; [7])	MIC (S. aureus 8810; [8])	Selectivity index (CC50/IC50) [1]	IC50 ([1]; MRSA)	MIC [1, 9]	MIC [1, 10]	MIC [2, 11]	MIC [2, 12]	IC50 [2]	Selectivity index (CC50/IC50) [2]	Selectivity index (CC50/IC50) [3]	IC50 [3]	MIC [3]	Selectivity index (CC50/IC50) (Pseudomonas aeruginosa)	MIC (Pseudomonas aeruginosa)	IC50 (Pseudomonas aeruginosa)	MIC [4, 13]	IC50 ([4]; E. faecalis)	further results
CNC(=O)[C@H]1O[C@@H](n2ccc(N)nc2=O)C=C[C@@H]1NC(=O)C[C@@H](N)CCN(C)C(=N)N [Compound 15, Methyl amide]	8.9	5.9 ± 1.2 µg/mL (≈ 13.5 µM)	32 µg/mL (≈ 73.5 µM)	32 µg/mL (≈ 73.5 µM)	4.0	13.3 ± 3.3 µg/mL (≈ 30.5 µM)	32 to 64 µg/mL (≈ 73.5 to 147 µM)	48 µg/mL (≈ 110 µM)	32 µg/mL (≈ 73.5 µM)	32 µg/mL (≈ 73.5 µM)	13.5 ± 3.6 µg/mL (≈ 31 µM)	3.9	2.5	21.1 ± 0.4 µg/mL (≈ 48.5 µM)	128 µg/mL (≈ 294 µM)	2.6	64 to 128 µg/mL (≈ 147 to 294 µM)	20.2 ± 3.4 µg/mL (≈ 46.4 µM)	16 to 32 µg/mL (≈ 36.7 to 73.5 µM)	13.2 ± 3.6 µg/mL (≈ 30.3 µM)	MIC [4, 14]: 32 µg/mL (≈ 73.5 µM); Selectivity index (CC50/IC50) [4]: 4.0; IC50 ([5]; A. baumannii): 18.3 ± 5.3 µg/mL (≈ 42 µM); MIC ([5]; A. baumannii, lowest concentration inhibiting >90% of growth, range from biological replicates, read-out: MIC): 64 µg/mL (≈ 147 µM); Selectivity index (CC50/IC50) [5]: 2.9; IC50 [6]: 26.4 ± 4.1 µg/mL (≈ 60.6 µM); MIC [6]: 64 µg/mL (≈ 147 µM); Selectivity index (CC50/IC50) [6]: 2.0; CC50 at 24 h (in vitro): 52.8 µg/mL (≈ 121 µM)
CCNC(=O)[C@H]1O[C@@H](n2ccc(N)nc2=O)C=C[C@@H]1NC(=O)C[C@@H](N)CCN(C)C(=N)N [Compound 16]	26	5.3 ± 1.5 µg/mL (≈ 11.8 µM)	32 µg/mL (≈ 71.2 µM)	32 µg/mL (≈ 71.2 µM)	9.2	14.9 ± 1.6 µg/mL (≈ 33.1 µM)	32 µg/mL (≈ 71.2 µM)	32 µg/mL (≈ 71.2 µM)	64 µg/mL (≈ 142 µM)	64 µg/mL (≈ 142 µM)	20.2 ± 8.1 µg/mL (≈ 44.9 µM)	6.8	7.0	19.6 ± 1.8 µg/mL (≈ 43.6 µM)	128 µg/mL (≈ 285 µM)	6.3	64 to 128 µg/mL (≈ 142 to 285 µM)	21.8 ± 2.7 µg/mL (≈ 48.5 µM)	16 to 32 µg/mL (≈ 35.6 to 71.2 µM)	9.6 ± 4 µg/mL (≈ 21.4 µM)	MIC [4, 14]: 16 µg/mL (≈ 35.6 µM); Selectivity index (CC50/IC50) [4]: 14; MIC [5]: 128 µg/mL (≈ 285 µM); IC50 ([5]; A. baumannii): 35.7 ± 11 µg/mL (≈ 79.4 µM); Selectivity index (CC50/IC50) [5]: 3.8; IC50 [6]: 60.1 ± 6.2 µg/mL (≈ 134 µM); MIC [6]: 256 µg/mL (≈ 570 µM); Selectivity index (CC50/IC50) [6]: 2.3; CC50 at 24 h (in vitro): 137 µg/mL (≈ 305 µM)
